Laboratory results as given in patent US20130331332A1, “COMPOSITION COMPRISING PEROXISOME PROLIFERATOR-ACTIVATED RECEPTOR-GAMMA” (MERZ PHARMA GmbH & Co. KGaA, priority 2011, published 2013).

Experiments:
Format in all cases: cell-based, human
[1] = system: adipose-derived stem cells (ASCs); test: Oil-O-Red staining of fat vacuoles in adipose-derived stem cells (Example 6); conditions: for formation of fat vacuoles / adipogenic differentiation (Oil-O-Red staining): PPARγ 2.7, 1, 0.5 or 0.1 μg/ml; for adipogenic differentiation / development of fat vacuoles (Oil-O-Red staining): 3 weeks of incubation in NM
Method: The induction of adipogenic differentiation by recombinant PPARγ was verified by Oil-O-Red staining of fat vacuoles. Human adipose-derived stem cells (ASCs) from 4 different donors were isolated as described in example 3. The cells were cultured for 2 weeks in “NM”, a standard culture medium of Dulbecco's modified Eagle's medium with a physiologic glucose concentration of 100 mg/dl (DMEM, Sigma, Germany) supplemented with 10% fetal calf serum (FCS; PAA, Germany) and medium was changed every 5-6 days. Cells were cultured in NM containing 2.7 μg/ml, 1 μg/ml, 0.5 μg/ml, or 0.1 μg/ml of PPARγ (Thermo Scientific-Pierce, PPARgamma human), respectively, or 5 μM Pioglitazone (Sigma-Aldrich, Germany), or 5 μM Pioglitazone and 2.7 μg/ml PPARγ, or 5 μM Pioglitazone and 0.1 μg/ml PPARγ. Controls were cultured in NM.
After 2 weeks in culture the formation of lipid droplets which is indicative of the ability to differentiate was verified by Oil-O-Red staining. Oil-O-Red is a fat-soluble dye used for the staining of neutral triglycerides. […] After fixation with 4% paraformaldehyde for 20 minutes, the cells were incubated for a staining time of 1 hour with a 0.5% Oil-O-Red (Sigma) solution in Isopropanol/glycerine. The Oil-O-Red staining was evaluated microscopically.
Further cells were cultured in NM containing 5 μM Pioglitazone (Sigma-Aldrich, Germany), or 5 μM Pioglitazone and 2.7 μg/ml PPARγ, or 5 μM Pioglitazone and 0.1 μg/ml PPARγ.
Further cell samples were cultured in “AM-” composed of DMEM with 4500 mg/l glucose, 10 μM insulin (Novo Nordisk), 1 μM dexamethasone (Ratiopharm), 10% FCS. Cell samples were cultured in AM- containing 2.7 μg/ml, 1 μg/ml, 0.5 μg/ml, or 0.1 μg/ml of PPARγ, respectively, or 5 μM Pioglitazone, or 5 μM Pioglitazone and 2.7 μg/ml PPARγ. Negative control cells were cultured in AM-. Cells incubated with DMEM with 4500mg/l glucose, 10 μM insulin (Novo Nordisk), 1 μM dexamethasone (Ratiopharm), 10% FCS and 1 mM isobutyl-methylxanthin (Sigma) and 200 μM indometacin (Fluka) were used as a positive induction control.
Culturing of cells in NM and in AM- containing the different PPARγ concentrations as given above was repeated with an incubation period of 3 weeks.

[2] = system: adipose-derived stem cells; test: Photometric measurement (optical density) of adipogenic differentiation in adipose-derived stem cells (Example 5); conditions: 2 weeks of culturing, FIG. 2
Method: The induction of adipogenic differentiation by recombinant PPARγ was tested in human adipose-derived stem cells from 4 different donors isolated as described in example 3. The cells were cultured for 2 weeks, and media were changed every 5-6 days. Cell samples were seeded with 1.5×10^4 cells in 96-well-plates. Recombinant PPARγ (recPPARγ) (Thermo Scientific-Pierce, PPARgamma human) was solved in dimethyl sulfoxide (DMSO) at a concentration of 270 µg/ml and used as a stock solution. Working solutions were prepared by dilution using a factor of 1:100 for a final concentration of 2.7 μg/ml, a factor of 1:270 for a final concentration of 1 μg/ml, a factor of 1:540 for a final concentration of 0.5 μg/ml, and a factor of 1:2700 for a final concentration of 0.1 μg/ml.
Cells were cultured in two different media, either in “NM”, a standard culture medium of Dulbecco's modified Eagle's medium with a physiologic glucose concentration of 100 mg/dl (DMEM, Sigma, Germany) supplemented with 10% fetal calf serum (FCS; PAA, Germany), or in “AM-” composed of DMEM with 4500 mg/l glucose (high glucose) and 10 μM insulin (Novo Nordisk), 1 μM dexamethasone (Ratiopharm), and 10% FCS. Cell samples were cultured in NM containing 2.7 μg/ml, 1 μg/ml, 0.5 μg/ml, or 0.1 μg/ml of PPARγ, respectively. […] After 2 weeks of culturing, the optical density was measured in a microplate reader. […]

[3] = system: adipose-derived stem cells (ASC); test: Induction of adipocyte differentiation by PPARgamma, oil red O staining (Example 2); conditions: PPARgamma 0.0001%, 0.01% and 1% by weight in culture media; 5 days incubation, further 9 days in culture; oil red O staining of lipid droplets
Method: The ability of peroxisome proliferator-activated receptor-gamma to induce differentiation of adipocytes was studied in adipose-derived stem cells (ASC). Human adipose-derived stem cells were obtained by liposuction and cultured following a published procedure (Crandall et al, Endocrinology 140:154-8, 1999). In brief, adipose tissue was digested with 2 mg/mL collagenase in Krebs-Ringer-bicarbonate buffer (pH 7.4). The preadipocyte fraction was resuspended in growth medium, transferred to a culture flask, and maintained in an incubator at 37° C., and 5% CO2. Cell attachment was allowed for 16-20 h and afterwards the cells that had not adhered were removed.
Peroxisome proliferator-activated receptor-gamma (PPARgamma) was added to respective final concentrations of 0.0001%, 0.01% and 1% by weight to the culture media 24 hours after the cells were seeded. The media was changed every three days and supplemented with fresh peroxisome proliferator-activated receptor-gamma. The cells were incubated with peroxisome proliferator-activated receptor-gamma for 5 days. Afterwards peroxisome proliferator-activated receptor-gamma was removed, and the cells were kept for further 9 days in culture for observation of lipid droplet formation, which is indicative of the ability to differentiate. Controls were run in medium without peroxisome proliferator-activated receptor-gamma. […]

[4] = system: adipose-derived stem cells; test: Cell proliferation of adipose-derived stem cells, MTT photometric assay (Example 4); conditions: 6 days, FIG. 1
Method: Cell proliferation was determined by a photometric assay using MTT (3-(4,5-dimethylthiazol-2-yl)-2,5-diphenyltetrazolium bromide). In brief, human adipose-derived stem cells were isolated from 5 different donors according to example 3 and 1.5×10^4 cells were seeded in 96-well-plates. Cell samples were used in quadruplicate in each experiment. The human adipose-derived stem cells were cultured for 6 days in two different media containing PPARγ or control media. Recombinant PPARγ (recPPARγ) (Thermo Scientific-Pierce, PPARgamma human) was solved in dimethyl sulfoxide (DMSO) at a concentration of 270 µg/ml and used as a stock solution. Working solutions were prepared by dilution using a factor of 1:100 for a final concentration of 2.7 μg/ml, a factor of 1:270 for a final concentration of 1 μg/ml, a factor of 1:540 for a final concentration of 0.5 μg/ml, and a factor of 1:2700 for a final concentration of 0.1 μg/ml. […]
After 6 days of culturing, the cells were incubated in PBS containing MTT at 37° C. for 4 hours. Afterwards, the medium was removed, 0.04 N HCl was added, and absorbance was measured in a microplate reader at 550 nm versus 650 nm. […]

Row | Compound | formation of fat vacuoles / adipogenic differentiation (Oil-O-Red staining) ([1]; 2 weeks of culture in AM- medium) | formation of fat vacuoles / adipogenic differentiation (Oil-O-Red staining) ([1]; 2 weeks of culture in NM, Pioglitazone 5 μM, FIG. 3) | formation of fat vacuoles and adipogenic differentiation (Oil-O-Red staining) ([1]; 3 weeks of culture in AM- medium) | adipogenic differentiation / development of fat vacuoles (Oil-O-Red staining) [1] | cytotoxic effect on cells (cell number by optical density) ([2]; 2.7-0.1 μg/ml PPARγ) | differentiation and proliferation (increase in optical density) ([2]; both media (NM and AM-)) | Degree of differentiation [3] | cell proliferation (MTT assay) ([4]; 2.7, 1, 0.5 or 0.1 μg/ml PPARγ, both media (NM and AM-)) | cell proliferation (MTT assay) ([4]; 5 μM Pioglitazone alone, NM standard medium)
1 | PPARγ: Recombinant PPARγ protein (Thermo Scientific-Pierce, PPARgamma human); nuclear hormone receptor transcription factor | able to induce the formation of fat vacuoles | able to induce the formation of fat vacuoles | induced the formation of fat vacuoles and adipogenic differentiation | heavily induced adipogenic differentiation | no cytotoxic effect | stimulated the differentiation and proliferation | ++ to +++ | stimulated the proliferation of the adipose-derived stem cells in a dose-dependent manner | –
2 | CCc1ccc(CCOc2ccc(CC3SC(=O)NC3=O)cc2)nc1 (racemic) [Pioglitazone, (RS)-5-{p-[2-(5-ethyl-2-pyridyl)ethoxy]benzyl}-2,4-thiazolidinedione, reference compound] | – | – | – | only slightly induced differentiation | – | – | – | – | no effect
